Measured values published in paper PMC11489056, “Molecular mechanism of a triazole-containing inhibitor of Mycobacterium tuberculosis DNA gyrase” (iScience, 2024).
Values after ≈ are worked out from the molar mass of the structure shown. Read-outs that look alike come from different tables or passages of the source.

Assays:
[1] = target: wild-type E. coli DNA gyrase (Escherichia coli, UniProt P0AES4+P0AES6); assay: biochemical; conditions: read-out: IC50 E. coli WT
E. coli = assay: MIC, agar dilution method, ESKAPE strains; format: cell-based, Escherichia coli
physchem [2] = format: physicochemical; conditions: pH 7.4
Method: 40 μL of a 10 mM solution in DMSO of the compound were diluted in 1.960 mL of a 1/1 octanol/PBS at pH 7.4 solution. The mixture was gently shaken 2h at room temperature. 20 μL of each solution was diluted in 480 μμL of MeOH and analyzed by LC-MS. Each compound is tested in triplicate. Analysis is performed thanks to a UPLC-MS/MS triple-quadrupole system (Waters) under SIM or MRM detection using the parameters optimized for each compound. HPLC analysis was performed using an Aquity C18 (50x2.1 mm, 1.8 μm); the gradient and the mobile phase (flow rate 600μL/min^-1) used are determined in order to detect the compound of interest with satisfying retention time and peak shape. Acquisition and analysis of data were performed with MS Workstation™ software (version 6.3.0 or higher). LogD was determined as the logarithm of the ratio of concentrations of product in octanol and PBS, determined by mass signals.

S. aureus = assay: MIC, agar dilution method, ESKAPE strains; format: cell-based; conditions: Staphylococcus aureus
E. faecium = assay: MIC, agar dilution method, ESKAPE strains; format: cell-based; conditions: Enterococcus faecium; read-out: MIC E. faecium MDR(5)
physchem [3] = format: physicochemical; conditions: pH 7.4, aqueous buffer, kinetic from dmso stock
Method: 10μL of a 10 mM solution in DMSO of the compound are diluted in 490 μL of PBS pH 7.4 in Matrix tube (in triplicate) or organic solvent (ACN, MeOH) in Matrix tube (in triplicate). The tubes are gently shaken 24h at room temperature. Then the tubes are centrifuged for 5 minutes at 4000 rpm and filtered over 0.45 μm filters (Millex-LH Millipore). 20 μL of each tube are diluted in 180 μL of MeOH. Analysis is performed thanks to a UPLC-MS/MS system (Waters) under SIM detection using the parameters optimized for each compound. HPLC analysis was performed using an Aquity C18 (50x2.1 mm, 1.8 μm); the gradient and the mobile phase (flow rate 600 μL/min^-1) used are determined in order to detect the compound of interest with satisfying retention time and peak shape. Acquisition and analysis of data were performed with Masslynx software. The solubility is determined by the ratio of mass signal area PBS/ organic solvent.

A. baumannii = assay: MIC, agar dilution method, ESKAPE strains; format: cell-based; conditions: Acinetobacter baumannii
[4] = tested on: Corynebacterium glutamicum (Cglu) WT; assay: MIC on Cglu WT; format: cell-based
wild-type Mtb gyrase = target: T1, wild-type Mtb gyrase (Mycobacterium tuberculosis, UniProt P9WG45+P9WG47); format: biochemical
T1 construct: His tag (TEV-cleavable) (N, cleaved yes); made in house; host or cells: E. coli Bli5 (DE3)

[5] = tested on: Mycobacterium tuberculosis H37Rv WT; assay: microbe, parasite or virus in culture; format: cell-based
Mtb GyrBA fusion protein [6] = target: T2, Mtb GyrBA fusion protein (Mycobacterium tuberculosis, UniProt P9WG45+P9WG47); assay: DNA cleavage assay on pBR322; format: biochemical; conditions: pBR322 5 nM, Mtb gyrase 200 nM, 5 μM inhibitor
T2 construct: His6 (TEV-cleavable) (N, cleaved yes); made in house; host or cells: E. coli Bli5 (DE3)

Mtb GyrBA fusion protein [7] = target: T2, Mtb GyrBA fusion protein; assay: Cleavage complex persistence (DNA cleavage-religation assay); format: biochemical
K. pneumoniae = assay: MIC, agar dilution method, ESKAPE strains; format: cell-based; conditions: Klebsiella pneumoniae
Mtb GyrBA fusion protein [8] = target: T2, Mtb GyrBA fusion protein; assay: DNA cleavage competition with ciprofloxacin; format: biochemical
[9] = tested on: wild-type C. glutamicum ATCC1332 strain; assay: Bacterial cell morphology (cell length) by microscopy; format: cell-based, Corynebacterium glutamicum; conditions: 10x MIC, 24h, vs DMSO control
Mtb = conditions: Figure 1F; cited from earlier work
Mtb gyrase = conditions: Figure 1E, GlaxoSmithKline MGIs; cited from earlier work
[10] = Escherichia coli, E. coli 10385 NDM-1, read-out: MIC E. coli MDR(2)
[11] = Escherichia coli, read-out: MIC E. coli WT(1)
[12] = read-out: MIC A. baumannii MDR(6)
[13] = Escherichia coli, 2 h, read-out: MIC E. coli WT
[14] = Escherichia coli, ATCC25922, read-out: MIC
[15] = Escherichia coli, E. coli 9003, BLSE, read-out: MIC
[16] = A. baumannii 09010, VEB-1, read-out: MIC

COc1ccc2nccc(-n3cc(CCNCc4ccc5c(c4)NC(=O)CO5)nn3)c2c1 [BDM71346 (9c)]
IC50 [1]: 780 nM
MIC (E. coli; [10]): 0.5 µg/mL (≈ 1.16 µM)
MIC (E. coli; [11]): 8 µg/mL (≈ 18.6 µM)
logD (physchem [2]): 1.32
MIC (S. aureus; read-out: MIC S. aureus MDR(4)): 32 µg/mL (≈ 74.3 µM)
MIC (S. aureus; read-out: MIC S. aureus WT(3)): 16 µg/mL (≈ 37.2 µM)
MIC (E. faecium): 1 µg/mL (≈ 2.32 µM)
solubility at 24 h (physchem [3]): 76.9 µg/mL (≈ 179 µM)
MIC (A. baumannii; [12]): 4 µg/mL (≈ 9.29 µM)

COc1ccc2nccc(-n3cc(CCNC(=O)c4ccc5c(c4)NC(=O)CS5)nn3)c2c1 [BDM71367 (11a)]
MIC (E. coli; [10]): 0.25 µg/mL (≈ 0.543 µM)
MIC (E. coli; [11]): 8 µg/mL (≈ 17.4 µM)
logD (physchem [2]): > 2.65
MIC (S. aureus; read-out: MIC S. aureus MDR(4)): 4 µg/mL (≈ 8.69 µM)
MIC (S. aureus; read-out: MIC S. aureus WT(3)): 4 µg/mL (≈ 8.69 µM)
MIC (E. faecium): 8 µg/mL (≈ 17.4 µM)
solubility at 24 h (physchem [3]): < 0.17 µg/mL
MIC (A. baumannii; [12]): 4 µg/mL (≈ 8.69 µM)

COc1ccc2nccc(-n3cc(CCNCc4ccc5c(c4)NC(=O)CS5)nn3)c2c1 [BDM71368 (9a)]
IC50 [1]: 1170 nM
MIC (E. coli; [13]): 1 µg/mL (≈ 2.24 µM)
MIC (E. coli; [10]): ≤ 0.06 µg/mL
MIC (E. coli; [11]): 1 µg/mL (≈ 2.24 µM)
MIC [4]: 0.5 µg/mL (≈ 1.12 µM)
IC50 lower than ciprofloxacin (wild-type Mtb gyrase): 10 fold
IC50 lower than gepotidacin (wild-type Mtb gyrase): 6 fold
logD (physchem [2]): 1.81
MIC [5]: 1 µg/mL (≈ 2.24 µM)
MIC (S. aureus; read-out: MIC S. aureus MDR(4)): 1 µg/mL (≈ 2.24 µM)
MIC (S. aureus; read-out: MIC S. aureus WT(3)): 1 µg/mL (≈ 2.24 µM)
MIC (E. faecium): 0.5 µg/mL (≈ 1.12 µM)
solubility at 24 h (physchem [3]): 84.7 µg/mL (≈ 190 µM)
MIC (A. baumannii; [12]): 1 µg/mL (≈ 2.24 µM)

COc1ccc2nccc(-n3cc(CCNCc4ccc5c(c4)OCCO5)nn3)c2c1 [BDM71369 (9b)]
IC50 [1]: 130 nM
MIC (E. coli; [10]): 1 µg/mL (≈ 2.4 µM)
MIC (E. coli; [11]): 32 µg/mL (≈ 76.7 µM)
logD (physchem [2]): 1.21
MIC (S. aureus; read-out: MIC S. aureus MDR(4)): 1 µg/mL (≈ 2.4 µM)
MIC (S. aureus; read-out: MIC S. aureus WT(3)): 1 µg/mL (≈ 2.4 µM)
MIC (E. faecium): 0.25 µg/mL (≈ 0.599 µM)
solubility at 24 h (physchem [3]): > 83.5 µg/mL
MIC (A. baumannii; [12]): 32 µg/mL (≈ 76.7 µM)

COc1ccc2nccc(-n3cc(CCNC(=O)c4ccc5c(c4)OCCO5)nn3)c2c1 [BDM71373 (11b)]
MIC (E. coli; [10]): 32 µg/mL (≈ 74.2 µM)
MIC (E. coli; [11]): ≥ 32 µg/mL
logD (physchem [2]): 2.35
MIC (S. aureus; read-out: MIC S. aureus MDR(4)): ≥ 32 µg/mL
MIC (S. aureus; read-out: MIC S. aureus WT(3)): ≥ 32 µg/mL
MIC (E. faecium): ≥ 32 µg/mL
solubility at 24 h (physchem [3]): 10.2 µg/mL (≈ 23.6 µM)
MIC (A. baumannii; [12]): 32 µg/mL (≈ 74.2 µM)

COc1ccc2nccc(-n3cc(CCNCc4ccc5c(c4)NC(=O)CS5)nn3)c2n1 [BDM71403 (10a)]
IC50 [1]: 80 nM
minor population of linearized DNA (Mtb GyrBA fusion protein [6]): 10–20%
MIC (E. coli): 0.5 µg/mL (≈ 1.12 µM)
MIC (E. coli; [13]): 1 µg/mL (≈ 2.23 µM)
MIC (E. coli; [14]): 1 µg/mL (≈ 2.23 µM)
MIC (E. coli; [15]): 1 µg/mL (≈ 2.23 µM)
MIC (E. coli; Escherichia coli, E. coli 10269, NDM-1, read-out: MIC): 1 µg/mL (≈ 2.23 µM)
MIC (E. coli; Escherichia coli, E. coli 10273, KPC-2, read-out: MIC): 1 µg/mL (≈ 2.23 µM)
MIC (E. coli; Escherichia coli, E. coli 10385, NDM-1, read-out: MIC): < 0.06 µg/mL
MIC (E. coli; [10]): ≤ 0.06 µg/mL
MIC (E. coli; Escherichia coli, E. coli 10386, NDM-1, read-out: MIC): 1 µg/mL (≈ 2.23 µM)
MIC (E. coli; Escherichia coli, read-out: MIC): 1 µg/mL (≈ 2.23 µM)
MIC (E. coli; [11]): 1 µg/mL (≈ 2.23 µM)
MIC [4]: 0.12 µg/mL (≈ 0.268 µM)
difference in complex half-life versus gepotidacin (Mtb GyrBA fusion protein [7]): 10 fold
IC50 lower than ciprofloxacin (wild-type Mtb gyrase): 12 fold
IC50 lower than gepotidacin (wild-type Mtb gyrase): 7 fold
logD (physchem [2]): 1.92
MIC [5]: 0.5 µg/mL (≈ 1.12 µM)
MIC (K. pneumoniae; K. pneumoniae 10270, VIM): 4 µg/mL (≈ 8.94 µM)
MIC (K. pneumoniae; K. pneumoniae 10272, 0XA-48): 2 µg/mL (≈ 4.47 µM)
MIC (K. pneumoniae; K. pneumoniae 10277, KPC-2): 2 µg/mL (≈ 4.47 µM)
concentration at which nicked DNA is diminished by 50% (Mtb GyrBA fusion protein [8]): 10 µM
lower concentration for drop of nicked DNA to 50% in comparison with gepotidacin (Mtb GyrBA fusion protein [8]): 2.5 fold
Cohen's d, cell length compared to control [9]: 1.87
effect size class, cell length compared to control [9]: ∗∗∗ (very large (∗∗∗), 1.20 < d < 2.0)
MIC (S. aureus; read-out: MIC S. aureus MDR(4)): 0.25 µg/mL (≈ 0.559 µM)
MIC (S. aureus; read-out: MIC S. aureus WT(3)): 0.25 µg/mL (≈ 0.559 µM)
MIC (E. faecium): ≤ 0.06 µg/mL
solubility at 24 h (physchem [3]): 44 µg/mL (≈ 98.3 µM)
MIC (A. baumannii; [16]): 1 µg/mL (≈ 2.23 µM)
MIC (A. baumannii; A. baumannii 10275, VIM-4, read-out: MIC): < 0.06 µg/mL

COc1ccc2nccc(-n3cc(CCNCc4ccc5c(c4)OCCO5)nn3)c2n1 [BDM71404 (10b)]
IC50 [1]: 380 nM
MIC (E. coli; [10]): 0.25 µg/mL (≈ 0.597 µM)
MIC (E. coli; [11]): 8 µg/mL (≈ 19.1 µM)
logD (physchem [2]): 1.53
MIC (S. aureus; read-out: MIC S. aureus MDR(4)): 0.25 µg/mL (≈ 0.597 µM)
MIC (S. aureus; read-out: MIC S. aureus WT(3)): 0.25 µg/mL (≈ 0.597 µM)
MIC (E. faecium): ≤ 0.06 µg/mL
solubility at 24 h (physchem [3]): 66.9 µg/mL (≈ 160 µM)

O=C(O)c1cn(C2CC2)c2cc(N3CCNCC3)c(F)cc2c1=O [Ciprofloxacin, ciprofloxacin, reference compound]
MIC (E. coli; [13]): ≤ 0.06 µg/mL
MIC (E. coli; [14]): < 0.06 µg/mL
MIC (E. coli; [15]): 16 µg/mL (≈ 48.3 µM)
MIC (E. coli; [11]): ≤ 0.06 µg/mL
MIC [4]: 0.25 µg/mL (≈ 0.754 µM)
MIC [5]: 1 µg/mL (≈ 3.02 µM)
Cohen's d, cell length compared to control [9]: 2.08
MIC (S. aureus; read-out: MIC S. aureus MDR(4)): ≥ 128 µg/mL
MIC (E. faecium): ≥ 128 µg/mL
MIC (A. baumannii; [16]): > 32 µg/mL

COc1cnc2ccc(=O)n(CCN3CCC(Nc4cnc(CO)c(Cl)c4)CC3)c2c1 [EC/11716]
MIC (Mtb): 0.17 µg/mL (≈ 0.383 µM)

COc1cnc2ccc(=O)n(CCN3CCC(Nc4ccc(Cl)c(Cl)c4)CC3)c2c1 [GSK000]
IC50 (Mtb gyrase): 5.4 µM

O=c1ccc2ncc(=O)n3c2n1C[C@H]3CN1CCC(NCc2cc3c(cn2)OCCC3)CC1 [Gepotidacin, gepotidacin, reference compound]
minor population of linearized DNA (Mtb GyrBA fusion protein [6]): 10–20%
MIC [4]: 0.2 µg/mL (≈ 0.446 µM)
MIC [5]: 4 µg/mL (≈ 8.92 µM)
Cohen's d, cell length compared to control [9]: 2.36
effect size class, cell length compared to control [9]: ∗∗∗∗ (huge (∗∗∗∗), d > 2.0)
